Patent US20250011873A1, “ENDOCRINE TREATMENT OF HORMONE RECEPTOR POSITIVE BREAST CANCER TYPED AS HAVING A LOW RISK OF RECURRENCE” (Agendia N.V., priority 2021, published 2025)

Assays:
[1] = test system: hormone-receptor (+) breast cancer; conditions: cited from earlier work
[2] = test system: hormone-receptor (+) breast cancer; test: NSABP B-42 randomized, double-blinded, placebo-controlled trial of extended adjuvant letrozole, analysed by MammaPrint risk group; type: in vivo, human; conditions: for HR, DFS: B-42 primary endpoint; for 10-year rate (%), letrozole arm (DFS rows: disease-free survival rate; DR/BCFI rows: event rate) / # Events (Letrozole): letrozole arm; for Abs. benefit (%): 10-year
From the text: NSABP B42 (Mamounas et al., 2019. Lancet Oncol 20: 88-99) refers to a randomized, double-blinded, placebo-controlled clinical trial of extended adjuvant endocrine therapy (tx) with letrozole (L) in postmenopausal women with hormone-receptor (+) breast cancer (BC) who have completed previous adjuvant tx with an aromatase inhibitor (AI). A pre-treatment gene expression biomarker such as MammaPrint may identify breast cancers at risk of recurrence in years 5 to 10 after diagnosis, for whom EET will be beneficial.
The MammaPrint test uses the expression levels of 70 genes to assess a patient's risk of recurrence. For the primary analysis, patient tumor samples were classified into a High Risk or Low Risk group by the 0.00 threshold in the MammaPrint index (high up to and low above 0.00 index, respectively). Recently, a subgroup of ultralow tumors is defined by MammaPrint index>+0.355 (Esserman et al., 2017. JAMA Oncol 3: 1503-1510).
Population for all analyses was based on the intention-to-treat (ITT) principle: patients were analyzed according to their randomized treatment, regardless of what they actually receive. This ensures the strengths of randomization are kept (an equal balance of potential prognostic factors between both groups), but it estimates the treatment effect in clinical practice.
Within the total study population and within each treatment arm, univariate Cox Regression Analysis were performed for MammaPrint risk groups and all available clinical, pathological, therapeutic variables. Summary statistics from the Cox model included the number of patients analyzed, hazard ratio (with 95% confidence interval (CI)) of the comparison and the according p-value. A p-value less than 0.05 (two sided) was considered statistically significance.
Differences in primary and secondary endpoints between placebo and letrozole groups were assessed by stratified log-rank tests. Stratification factors included original stratification factors from the parent B-42 trial, i.e., pathological node status at diagnosis (negative vs positive), prior tamoxifen use (no vs yes), and lowest bone mineral density T score in the lumbosacral spine, total hip, or femoral neck (≤−2.0 or >−2.0 SD).
Multivariate Cox Regression Analysis were utilized to examine the interaction between EET treatment and MP Risk index. Secondary elaborated multivariate analyses were performed to examine interaction with MammaPrint, EET treatment and any clinical and pathologic variable. Summary statistics from these Cox models include the number of patients analyzed, hazard ratios (with 95% CI) of the comparisons and the according p-values.
The following event variables were used for appropriate analyses: • Distant Recurrence (DR): yes vs. no • Time to DR: continuous months • Overall Survival (OS): yes vs. no • Time to Death: continuous months • Disease Free Survival (DFS): yes vs. no • Time to DFS: continuous months • Breast Cancer Free Interval (BCFI): yes vs. no • Time to BCFI: continuous months
A Kaplan-Meier curve with corresponding Log-rank test was used to visualize the survival distribution function for each MammaPrint risk group. Cox PH models stratified by nodal status, prior tamoxifen use, and lowest bone mineral density T-score was used to explore the association among risk factors listed to survival outcomes. This was done for each treatment arm. Kaplan-Meier curves were also used to visualize the survival distribution function for each treatment group.
NSABP-B42 assessed the effect of 5 years of letrozole after 5 years of prior endocrine therapy in postmenopausal women with early stage hormone receptor positive (HR+) breast cancer. Randomization occurred five years after diagnosis.
There were 3,966 patients randomly assigned to placebo or letrozole. Among them, 63 were excluded due to either no clinical assessment or not being at risk for the primary DFS endpoint for the B-42 parent trial. Blocks were available for 2,339 patients who consented for future research. […]

[3] = test system: early-stage ER positive breast cancer; conditions: tamoxifen for five years; during the treatment period; cited from earlier work
[4] = BCFI, MP Risk Group H, letrozole vs placebo
[5] = BCFI, MP Risk Group L, letrozole vs placebo
[6] = BCFI, MP Risk Group LNUL, letrozole vs placebo
[7] = BCFI, MP Risk Group UL, letrozole vs placebo
[8] = DFS, MP Risk Group H, letrozole vs placebo
[9] = DFS, MP Risk Group L, letrozole vs placebo
[10] = DFS, MP Risk Group LNUL, letrozole vs placebo
[11] = DFS, MP Risk Group UL, letrozole vs placebo
[12] = DR, MP Risk Group H, letrozole vs placebo
[13] = DR, MP Risk Group L, letrozole vs placebo
[14] = DR, MP Risk Group LNUL, letrozole vs placebo
[15] = DR, MP Risk Group UL, letrozole vs placebo
[16] = all patients of the translational MP cohort, letrozole vs placebo

N#Cc1ccc(C(c2ccc(C#N)cc2)n2cncn2)cc1 [Letrozole, letrozole]
prolongation of disease-free survival (DFS) ([1]; NSABP B42, extended letrozole therapy compared to the placebo group (Mamounas et al., 2019)): no statistically significant prolongation | reduction in distant recurrence (DR) in the letrozole arm ([1]; NSABP B42, extended letrozole vs placebo (Mamounas et al., 2019)): 28% | HR, DFS ([2]; 6.9 years of median follow-up): 0.85 | HR, DFS ([2]; updated results, 10.3 years of median follow-up): 0.85 | reduction of distant recurrence (DR) in the letrozole arm ([2]; B-42 secondary endpoint): 28% | 10-year rate (%), letrozole arm (DFS rows: disease-free survival rate; DR/BCFI rows: event rate) ([2]; BCFI, MP Risk Group H): 14.6% | # Events (Letrozole) ([2]; BCFI, MP Risk Group H): 42 | HR (95% CI) [2, 4]: 1.15 | Abs. benefit (%) [2, 4]: −3.0% | HR (95% CI) ([2]; BCFI, MP Risk Group H, letrozole vs placebo, listed as letrozole): 1.15 (0.74, 1.79) | 10-year rate (%), letrozole arm (DFS rows: disease-free survival rate; DR/BCFI rows: event rate) ([2]; BCFI, MP Risk Group L): 8.4% | # Events (Letrozole) ([2]; BCFI, MP Risk Group L): 44 | HR (95% CI) [2, 5]: 0.51 | Abs. benefit (%) [2, 5]: 7.0% | HR (95% CI) ([2]; BCFI, MP Risk Group L, letrozole vs placebo, listed as letrozole): 0.51 (0.35, 0.74) | 10-year rate (%), letrozole arm (DFS rows: disease-free survival rate; DR/BCFI rows: event rate) ([2]; BCFI, MP Risk Group LNUL): 8.7% | # Events (Letrozole) ([2]; BCFI, MP Risk Group LNUL): 36 | HR (95% CI) [2, 6]: 0.48 | Abs. benefit (%) [2, 6]: 7.9% | HR (95% CI) ([2]; BCFI, MP Risk Group LNUL, letrozole vs placebo, listed as letrozole): 0.48 (0.32-0.73) | 10-year rate (%), letrozole arm (DFS rows: disease-free survival rate; DR/BCFI rows: event rate) ([2]; BCFI, MP Risk Group UL): 7.3% | # Events (Letrozole) ([2]; BCFI, MP Risk Group UL): 8 | HR (95% CI) [2, 7]: 0.67 | Abs. benefit (%) [2, 7]: 4.1% | HR (95% CI) ([2]; BCFI, MP Risk Group UL, letrozole vs placebo, listed as letrozole): 0.67 (0.28, 1.65) | 10-year rate (%), letrozole arm (DFS rows: disease-free survival rate; DR/BCFI rows: event rate) ([2]; DFS, MP Risk Group H): 71.2% | # Events (Letrozole) ([2]; DFS, MP Risk Group H): 91 | HR (95% CI) [2, 8]: 1.10 | Abs. benefit (%) [2, 8]: −1.6% | HR (95% CI) ([2]; DFS, MP Risk Group H, letrozole vs placebo, listed as letrozole): 1.10 (0.82, 1.47) | 10-year rate (%), letrozole arm (DFS rows: disease-free survival rate; DR/BCFI rows: event rate) ([2]; DFS, MP Risk Group L): 79.7% | # Events (Letrozole) ([2]; DFS, MP Risk Group L): 113 | HR (95% CI) [2, 9]: 0.67 | Abs. benefit (%) [2, 9]: 7.8% | HR (95% CI) ([2]; DFS, MP Risk Group L, letrozole vs placebo, listed as letrozole): 0.67 (0.52, 0.85) | 10-year rate (%), letrozole arm (DFS rows: disease-free survival rate; DR/BCFI rows: event rate) ([2]; DFS, MP Risk Group LNUL): 78.9% | # Events (Letrozole) ([2]; DFS, MP Risk Group LNUL): 93 | HR (95% CI) [2, 10]: 0.64 | Abs. benefit (%) [2, 10]: 9.5% | HR (95% CI) ([2]; DFS, MP Risk Group LNUL, letrozole vs placebo, listed as letrozole): 0.64 (0.49, 0.83) | 10-year rate (%), letrozole arm (DFS rows: disease-free survival rate; DR/BCFI rows: event rate) ([2]; DFS, MP Risk Group UL): 82.5% | # Events (Letrozole) ([2]; DFS, MP Risk Group UL): 20 | HR (95% CI) [2, 11]: 0.82 | Abs. benefit (%) [2, 11]: 1.8% | HR (95% CI) ([2]; DFS, MP Risk Group UL, letrozole vs placebo, listed as letrozole): 0.82 (0.45, 1.48) | 10-year rate (%), letrozole arm (DFS rows: disease-free survival rate; DR/BCFI rows: event rate) ([2]; DR, MP Risk Group H): 4.9% | # Events (Letrozole) ([2]; DR, MP Risk Group H): 15 | HR (95% CI) [2, 12]: 0.65 | Abs. benefit (%) [2, 12]: 2.4% | HR (95% CI) ([2]; DR, MP Risk Group H, letrozole vs placebo, listed as letrozole): 0.65 (0.34, 1.24) | 10-year rate (%), letrozole arm (DFS rows: disease-free survival rate; DR/BCFI rows: event rate) ([2]; DR, MP Risk Group L): 3.5% | # Events (Letrozole) ([2]; DR, MP Risk Group L): 20 | HR (95% CI) [2, 13]: 0.43 | Abs. benefit (%) [2, 13]: 3.7% | HR (95% CI) ([2]; DR, MP Risk Group L, letrozole vs placebo, listed as letrozole): 0.43 (0.25, 0.74) | 10-year rate (%), letrozole arm (DFS rows: disease-free survival rate; DR/BCFI rows: event rate) ([2]; DR, MP Risk Group LNUL): 3.6% | # Events (Letrozole) ([2]; DR, MP Risk Group LNUL): 17 | HR (95% CI) [2, 14]: 0.42 | Abs. benefit (%) [2, 14]: 4.0% | HR (95% CI) ([2]; DR, MP Risk Group LNUL, letrozole vs placebo, listed as letrozole): 0.42 (0.23, 0.76) | 10-year rate (%), letrozole arm (DFS rows: disease-free survival rate; DR/BCFI rows: event rate) ([2]; DR, MP Risk Group UL): 2.9% | # Events (Letrozole) ([2]; DR, MP Risk Group UL): 3 | HR (95% CI) [2, 15]: 0.53 | Abs. benefit (%) [2, 15]: 3.0% | HR (95% CI) ([2]; DR, MP Risk Group UL, letrozole vs placebo, listed as letrozole): 0.53 (0.13, 2.15) | HR, rate of DR ([2]; Excluded B-42 cohort, letrozole vs placebo): 0.92 | HR, BCFI ([2]; MP-H subgroup, after 5.2 years (time-dependent analysis)): 2.77 | HR, BCFI ([2]; MP-H subgroup, prior to 5.2 years (time-dependent analysis)): 0.65 | HR, BCFI ([2]; MP-L subgroup, after 5.2 years (time-dependent analysis)): 0.37 | HR, BCFI ([2]; MP-L subgroup, prior to 5.2 years (time-dependent analysis)): 0.65 | HR, breast cancer-free interval [2, 16]: 0.70 (0.53, 0.93) | HR, disease-free survival [2, 16]: 0.81 (0.68, 0.98)

CC/C(=C(\c1ccccc1)c1ccc(OCCN(C)C)cc1)c1ccccc1 [tamoxifen]
reduction of recurrence rate compared to placebo [3]: 50%
